{
  "source": "patent US20100125081A1",
  "about": "“NEW COMPOUNDS 574” (ASTRAZENECA AB, priority 2008, published 2010)",
  "data": [
    {"target": "T1, human β-Secretase (Homo sapiens, UniProt P56817)", "T1 construct": "soluble part of the human β-Secretase (AA 1-AA 460); Fc domain of IgG1 (C); made in house", "T1 sequence (P56817 22-460)": "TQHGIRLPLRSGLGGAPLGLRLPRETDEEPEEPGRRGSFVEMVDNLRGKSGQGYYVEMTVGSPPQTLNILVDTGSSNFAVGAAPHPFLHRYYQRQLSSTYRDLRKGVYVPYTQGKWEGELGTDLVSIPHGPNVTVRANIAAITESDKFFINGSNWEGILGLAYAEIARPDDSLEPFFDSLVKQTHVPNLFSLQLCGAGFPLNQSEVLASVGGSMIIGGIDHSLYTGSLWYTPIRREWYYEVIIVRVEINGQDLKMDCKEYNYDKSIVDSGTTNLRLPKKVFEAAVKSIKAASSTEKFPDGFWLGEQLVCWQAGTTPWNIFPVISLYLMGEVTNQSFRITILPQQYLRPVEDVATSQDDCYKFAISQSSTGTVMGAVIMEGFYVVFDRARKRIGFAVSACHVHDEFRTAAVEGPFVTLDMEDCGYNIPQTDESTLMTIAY", "assay": "TR-FRET assay (β-secretase enzyme, sBACE-Fc)", "assay_type": "biochemical", "conditions": "soluble human β-secretase (AA 1-460) Fc fusion, substrate (Europium)CEVNLDAEFK(Qsy7) 100 nM, pH 4.5; unit inferred, nM taken", "experimental": "The β-secretase enzyme used in the TR-FRET is prepared as follows:\nThe cDNA for the soluble part of the human β-Secretase (AA 1-AA 460) was cloned using the ASP2-Fc10-1-IRES-GFP-neoK mammalian expression vector. The gene was fused to the Fc domain of IgG1 (affinity tag) and stably cloned into HEK 293 cells.\nThe enzyme (truncated form) was diluted to 6 μg/mL (stock 1.3 mg/mL) and the substrate (Europium)CEVNLDAEFK(Qsy7) to 200 nM (stock 120 μM) in reaction buffer (NaAcetate, chaps, triton x-100, EDTA pH4.5). The robotic systems Biomek FX and Velocity 11 were used for all liquid handling and the enzyme and substrate solutions were kept on ice until they were placed in the robotic system. Enzyme (9 μl) was added to the plate then 1 μl of compound in dimethylsulphoxide was added, mixed and pre-incubated for 10 minutes. Substrate (10 μl) was then added, mixed and the reaction proceeded for 15 minutes at room temperature. The reaction was stopped with the addition of Stop solution (7 μl, NaAcetate, pH 9). The fluorescence of the product was measured on a Victor II plate reader with an excitation wavelength of 340 nm and an emission wavelength of 615 nm. The assay was performed in a Costar 384 well round bottom, low volume, non-binding surface plate (Corning #3676). The final concentration of the enzyme was 2.7 μg/ml; the final concentration of substrate was 100 nM (Km of ˜250 nM). The dimethylsulphoxide control, instead of test compound, defined the 100% activity level and 0% activity was defined by wells lacking enzyme (replaced with reaction buffer).", "units": {"IC50": "nM"}, "values": [
      {"smiles": "Cc1cc(C2(c3cccc(-c4cnccn4)c3)N=C(N)c3ncccc32)cc(C)c1OCF", "note": "(stereo not drawn) [Example 27, 5-(4-(Fluoromethoxy)-3,5-dimethylphenyl)-5-(3-(pyrazin-2-yl)phenyl)-5H-pyrrolo[3,4-b]pyridin-7-amine]", "IC50": 90},
      {"smiles": "NC1=NC(c2cccc(-c3cncnc3)c2)(c2ccnc(OCCCF)c2)c2cccnc21", "note": "(stereo not drawn) [Example 28, 5-(2-(3-Fluoropropoxy)pyridin-4-yl)-5-(3-(pyrimidin-5-yl)phenyl)-5H-pyrrolo[3,4-b]pyridin-7-amine]", "IC50": 1560},
      {"smiles": "Cc1cc(C2(c3ccnc(-c4cncnc4)c3)N=C(N)c3ncccc32)cc(C)c1OC(F)F", "note": "(stereo not drawn) [Example 29, 5-(4-Difluoromethoxy-3,5-dimethyl-phenyl)-5-(2-pyrimidin-5-yl-pyridin-4-yl)-5H-pyrrolo[3,4-b]pyridin-7-ylamine]", "IC50": 106},
      {"smiles": "Cc1cc(C2(c3ccnc(-c4cncnc4)c3)N=C(N)c3ncccc32)cc(C2CC2)c1OC(F)F", "note": "(stereo not drawn) [Example 30, 5-(3-Cyclopropyl-4-difluoromethoxy-5-methyl-phenyl)-5-(2-pyrimidin-5-yl-pyridin-4-yl)-5H-pyrrolo[3,4-b]pyridin-7-ylamine]", "IC50": 119},
      {"smiles": "Cc1cc(C2(c3ccccc3)N=C(N)c3ncccc32)cc(C2CC2)c1OC(F)F", "note": "(stereo not drawn) [Example 31, 5-[3-Cyclopropyl-4-(difluoromethoxy)-5-methyl-phenyl]-5-phenyl-pyrrolo[3,4-b]pyridin-7-amine]", "IC50": 815},
      {"smiles": "Cc1cc(C2(c3cccc(C#N)c3)N=C(N)c3ncccc32)cc(C2CC2)c1OC(F)F", "note": "(stereo not drawn) [Example 32, 3-[7-Amino-5-(3-cyclopropyl-4-difluoromethoxy-5-methyl-phenyl)-5H-pyrrolo[3,4-b]pyridin-5-yl]-benzonitrile]", "IC50": 61},
      {"smiles": "COc1ccc(C2(c3cccc(-c4cncnc4)c3)N=C(N)c3ncccc32)cc1C1CC1", "note": "(stereo not drawn) [Example 33, 5-(3-Cyclopropyl-4-methoxy-phenyl)-5-(3-pyrimidin-5-yl-phenyl)-5H-pyrrolo[3,4-b]pyridin-7-ylamine]", "IC50": 222},
      {"smiles": "NC1=NC(c2cccc(-c3cncnc3)c2)(c2ccc(OC(F)F)c(CCF)c2)c2cccnc21", "note": "(stereo not drawn) [Example 34, 5-[4-Difluoromethoxy-3-(2-fluoro-ethyl)-phenyl]-5-(3-pyrimidin-5-yl-phenyl)-5H-pyrrolo[3,4-b]pyridin-7-ylamine]", "IC50": 30},
      {"smiles": "COc1c(C)cc(C2(c3cccc(-c4cncnc4)c3)N=C(N)c3ncccc32)nc1C", "note": "(stereo not drawn) [Example 35, 5-(5-Methoxy-4,6-dimethyl-pyridin-2-yl)-5-(3-pyrimidin-5-yl-phenyl)-5H-pyrrolo[3,4-b]pyridin-7-ylamine]", "IC50": 125},
      {"smiles": "COc1c(C)cc(C2(c3cccc(-c4cncnc4)c3)N=C(N)c3ncccc32)cc1F", "note": "(stereo not drawn) [Example 36, 5-(3-Fluoro-4-methoxy-5-methylphenyl)-5-(3-(pyrimidin-5-yl)phenyl)-5H-pyrrolo[3,4-b]pyridin-7-amine]", "IC50": 41},
      {"smiles": "COc1ccc(F)c(-c2cc(C3(c4ccnc(C(F)(F)F)c4)N=C(N)c4ncccc43)ccc2O)c1", "note": "(stereo not drawn) [Example 37, 5-(7-Amino-5-(2-(trifluoromethyl)pyridin-4-yl)-5H-pyrrolo[3,4-b]pyridin-5-yl)-2′-fluoro-5′-methoxybiphenyl-2-ol]", "IC50": 206},
      {"smiles": "NC1=NC(c2ccnc(C(F)(F)F)c2)(c2ccc(O)c(-c3ccccc3F)c2)c2cccnc21", "note": "(stereo not drawn) [Example 38, 5-(7-Amino-5-(2-(trifluoromethyl)pyridin-4-yl)-5H-pyrrolo[3,4-b]pyridin-5-yl)-2′-fluorobiphenyl-2-ol]", "IC50": 658}
    ]}
  ]
}
